According to patent publication US7879881B2, “Piperidinyl compounds that selectively bind integrins” (Janssen Pharmaceutica NV, priority 2002, dated 2011):
Like-named read-outs stand apart in the source and are kept apart here.

How the values were obtained:
Human αvβ3 = molecular target: T1, Human αvβ3 (Homo sapiens, UniProt P05106+P06756); experiment: In Vitro Solid Phase Purified αvβ3 Binding Assay (vitronectin/αvβ3); conditions: vitronectin binding to immobilized purified human αvβ3, mean ± spread
T1 construct: purchased Chemicon International Inc., Temecula, Calif
T1 sequence (P06756 31-889 limits assumed): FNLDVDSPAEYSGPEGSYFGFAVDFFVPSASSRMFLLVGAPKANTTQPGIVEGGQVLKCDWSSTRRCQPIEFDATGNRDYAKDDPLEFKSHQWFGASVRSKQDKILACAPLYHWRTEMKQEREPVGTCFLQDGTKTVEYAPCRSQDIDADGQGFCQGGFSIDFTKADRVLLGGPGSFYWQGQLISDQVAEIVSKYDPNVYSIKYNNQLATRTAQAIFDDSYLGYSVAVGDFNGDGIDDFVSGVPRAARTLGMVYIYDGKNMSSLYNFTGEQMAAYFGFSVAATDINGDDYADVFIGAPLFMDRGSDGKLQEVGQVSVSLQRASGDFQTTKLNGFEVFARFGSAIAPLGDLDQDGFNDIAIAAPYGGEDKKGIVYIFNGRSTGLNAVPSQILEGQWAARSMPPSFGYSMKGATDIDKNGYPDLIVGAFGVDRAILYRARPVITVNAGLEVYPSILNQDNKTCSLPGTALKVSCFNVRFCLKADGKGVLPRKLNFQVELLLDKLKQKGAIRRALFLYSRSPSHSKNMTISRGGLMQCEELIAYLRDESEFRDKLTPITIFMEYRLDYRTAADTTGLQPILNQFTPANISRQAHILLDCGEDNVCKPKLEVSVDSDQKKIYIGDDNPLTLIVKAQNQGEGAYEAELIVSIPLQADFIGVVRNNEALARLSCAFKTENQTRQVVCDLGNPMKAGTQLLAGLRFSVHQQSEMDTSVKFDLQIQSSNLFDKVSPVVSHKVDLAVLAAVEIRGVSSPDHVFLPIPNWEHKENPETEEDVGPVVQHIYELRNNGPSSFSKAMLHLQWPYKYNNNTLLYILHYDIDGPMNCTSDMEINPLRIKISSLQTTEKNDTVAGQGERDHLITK
T1 sequence (P06756 891-1048 partner limits assumed): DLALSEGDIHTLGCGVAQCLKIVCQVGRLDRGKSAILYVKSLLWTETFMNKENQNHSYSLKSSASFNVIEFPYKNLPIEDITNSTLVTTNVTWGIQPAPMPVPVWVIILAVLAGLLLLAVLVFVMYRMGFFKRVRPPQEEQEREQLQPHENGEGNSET
T1 sequence (P05106 27-788): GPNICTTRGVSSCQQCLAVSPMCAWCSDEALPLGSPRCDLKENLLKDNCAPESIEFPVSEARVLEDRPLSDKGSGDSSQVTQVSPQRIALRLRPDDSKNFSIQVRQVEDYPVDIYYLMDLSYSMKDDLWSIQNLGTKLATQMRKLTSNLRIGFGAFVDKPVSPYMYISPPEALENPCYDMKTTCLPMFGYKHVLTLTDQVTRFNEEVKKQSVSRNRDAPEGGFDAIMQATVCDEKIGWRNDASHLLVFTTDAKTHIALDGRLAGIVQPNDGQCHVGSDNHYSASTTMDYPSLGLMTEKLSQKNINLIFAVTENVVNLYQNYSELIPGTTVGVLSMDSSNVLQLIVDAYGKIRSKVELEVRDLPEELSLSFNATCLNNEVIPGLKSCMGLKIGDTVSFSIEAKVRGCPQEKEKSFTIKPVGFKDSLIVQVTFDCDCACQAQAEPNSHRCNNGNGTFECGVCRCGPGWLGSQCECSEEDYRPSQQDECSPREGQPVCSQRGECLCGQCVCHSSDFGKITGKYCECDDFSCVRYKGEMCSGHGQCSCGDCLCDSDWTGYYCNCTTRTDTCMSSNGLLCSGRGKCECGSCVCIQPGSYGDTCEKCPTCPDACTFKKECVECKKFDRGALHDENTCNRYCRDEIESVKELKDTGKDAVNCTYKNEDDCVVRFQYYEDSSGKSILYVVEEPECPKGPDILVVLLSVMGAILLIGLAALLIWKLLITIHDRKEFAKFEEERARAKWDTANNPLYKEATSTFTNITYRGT
Description: In Vitro Solid Phase Purified αvβ3 Binding Assay
(§1) Human αvβ3 (Chemicon International Inc., Temecula, Calif.), at a concentration of 1 μg/ml dissolved in Tris buffer (20 mM Tris, 1 mM CaCl2, 1 mM MgCl2, 10 μM MnCl2, 150 mM NaCl), was immobilized on Immulon 96 well plates (Dynex Technologies, Chantilly, Va.) overnight at 4° C. Plates were washed and treated with blocking buffer (3% BSA in Tris buffer) for 2 h at 37° C. Plates were then rinsed 2 times with assay buffer comprised of Tris buffer. Synthesized compounds were added to wells in duplicate immediately prior to the addition of 2 nM vitronectin (Sigma, St. Louis, Mo.). Following a 3 hour incubation at 37° C., plates were washed 5 times in assay buffer. An anti-human vitronectin IgG rabbit polyclonal antibody (Calbiochem, San Diego, Calif.) was added (1:2000) and plates were incubated for 1 hour at room temperature. VectaStain ABC peroxidase kit reagents (Vector Laboratories, Burlingame, Calif.) employing a biotin labeled anti-rabbit IgG, were utilized for detection of bound antibody. Plates were read at 490 nm on a Molecular Devices (Sunnyvale, Calif.) microplate reader.

GP IIb/IIIa = GP IIb/IIIa (Homo sapiens, UniProt P05106+P08514); experiment: In Vitro Solid Phase Purified GP IIb/IIIa Binding Assay (biotinylated fibrinogen); conditions: biotinylated fibrinogen binding to immobilized purified GP IIb/IIIa, mean ± spread
Sequence of GP IIb/IIIa (P08514 32-887 limits assumed): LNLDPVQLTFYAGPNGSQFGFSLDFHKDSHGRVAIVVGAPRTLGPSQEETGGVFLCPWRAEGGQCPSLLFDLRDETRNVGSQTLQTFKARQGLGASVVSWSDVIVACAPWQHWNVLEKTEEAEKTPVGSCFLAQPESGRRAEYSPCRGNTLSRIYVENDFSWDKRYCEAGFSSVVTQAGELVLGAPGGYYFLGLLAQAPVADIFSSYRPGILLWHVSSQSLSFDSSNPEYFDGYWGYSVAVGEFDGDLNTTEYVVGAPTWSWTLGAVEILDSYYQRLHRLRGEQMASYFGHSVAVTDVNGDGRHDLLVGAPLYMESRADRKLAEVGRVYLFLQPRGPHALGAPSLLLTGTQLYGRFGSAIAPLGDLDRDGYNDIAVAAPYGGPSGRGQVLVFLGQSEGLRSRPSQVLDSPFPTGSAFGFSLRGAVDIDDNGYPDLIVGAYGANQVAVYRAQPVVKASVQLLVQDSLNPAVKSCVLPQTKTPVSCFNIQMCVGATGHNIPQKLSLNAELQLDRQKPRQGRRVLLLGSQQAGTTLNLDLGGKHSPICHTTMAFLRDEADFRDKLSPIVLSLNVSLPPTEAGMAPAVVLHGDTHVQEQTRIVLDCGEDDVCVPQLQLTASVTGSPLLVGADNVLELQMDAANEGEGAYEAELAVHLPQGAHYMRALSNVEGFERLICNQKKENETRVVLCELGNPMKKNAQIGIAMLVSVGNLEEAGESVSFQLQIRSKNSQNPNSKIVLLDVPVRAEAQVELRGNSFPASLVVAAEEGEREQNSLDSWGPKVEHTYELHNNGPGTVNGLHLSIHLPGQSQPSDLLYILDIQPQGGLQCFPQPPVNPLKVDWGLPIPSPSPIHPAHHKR
Sequence of GP IIb/IIIa (P08514 891-1039 partner limits assumed): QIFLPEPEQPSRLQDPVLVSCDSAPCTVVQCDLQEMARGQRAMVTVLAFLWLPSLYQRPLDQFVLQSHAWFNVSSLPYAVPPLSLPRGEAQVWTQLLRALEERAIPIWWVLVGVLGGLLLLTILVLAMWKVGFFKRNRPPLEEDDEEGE
Sequence of GP IIb/IIIa (P05106 27-788): as the sequence (P05106 27-788) above
Description: In Vitro Solid Phase Purified GP IIb/IIIa Binding Assay
The plate was covered and incubated overnight at 4° C. The GP IIb/IIIa solution was discarded and 150 μL of 5% BSA was added and incubated at RT for 1-3 h. The plate was washed extensively with modified Tyrodes buffer. Biotinylated fibrinogen (25 μL/well) at 2× final concentration was added to the wells that contain the test compounds (25 μL/well). The plate was covered and incubated at RT for 2-4 h. Twenty minutes prior to incubation completion, one drop of Reagent A (VectaStain ABC Horseradish Peroxidase kit, Vector Laboratories, Inc.) and one drop Reagent B were added with mixing to 5 mL modified Tyrodes buffer mix and let stand. The ligand solution was discarded and the plate washed (5×200 μL/well) with modified Tyrodes buffer. […] The Vecta Stain solution was discarded and the wells washed (5×200 μL/well) with modified Tyrodes buffer. Developing buffer (10 mL of 50 mM citrate/phosphate buffer @ pH 5.3, 6 mg o-phenylenediamine, 6 μL 30% H2O2; 50 μL/well) was added and incubated at RT for 3-5 min and then 2 N H2SO4 (50 μL/well) was added.

human purified αVβ5 = molecular target: T2, human purified αVβ5 (Homo sapiens, UniProt P06756+P18084); experiment: In Vitro Solid Phase Purified αcβ5 Binding Assay (vitronectin/αVβ5); conditions: vitronectin binding to immobilized purified human αVβ5, mean ± spread
T2 construct: purchased Chemicon International, Inc
T2 sequence (P06756 31-889 limits assumed): as the sequence (P06756 31-889 limits assumed) above
T2 sequence (P06756 891-1048 partner limits assumed): as the sequence (P06756 891-1048 partner limits assumed) above
T2 sequence (P18084 24-799): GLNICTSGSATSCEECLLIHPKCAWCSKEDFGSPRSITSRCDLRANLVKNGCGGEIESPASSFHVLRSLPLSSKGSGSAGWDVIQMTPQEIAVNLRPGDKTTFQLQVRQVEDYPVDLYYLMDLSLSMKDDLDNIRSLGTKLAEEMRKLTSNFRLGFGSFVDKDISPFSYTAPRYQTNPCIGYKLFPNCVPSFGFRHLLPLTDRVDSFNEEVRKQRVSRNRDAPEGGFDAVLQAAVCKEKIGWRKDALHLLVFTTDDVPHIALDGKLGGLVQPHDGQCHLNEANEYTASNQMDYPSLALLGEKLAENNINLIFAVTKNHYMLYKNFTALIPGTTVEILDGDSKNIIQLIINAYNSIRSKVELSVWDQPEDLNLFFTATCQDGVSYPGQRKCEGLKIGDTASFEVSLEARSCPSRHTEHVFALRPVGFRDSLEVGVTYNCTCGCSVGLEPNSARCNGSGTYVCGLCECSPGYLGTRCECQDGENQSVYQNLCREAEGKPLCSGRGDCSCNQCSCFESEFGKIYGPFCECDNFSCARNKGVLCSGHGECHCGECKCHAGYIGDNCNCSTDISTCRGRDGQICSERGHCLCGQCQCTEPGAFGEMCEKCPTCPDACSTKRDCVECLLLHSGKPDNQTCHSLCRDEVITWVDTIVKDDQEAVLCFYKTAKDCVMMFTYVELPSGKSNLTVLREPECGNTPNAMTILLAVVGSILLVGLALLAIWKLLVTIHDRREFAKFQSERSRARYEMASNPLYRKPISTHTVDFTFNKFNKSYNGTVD
Description: as §1
In Vitro Solid Phase Purified αcβ5 Binding Assay
All other aspects of the assay including buffers, reagents and incubation times remain unchanged.

| SMILES | IC50 (Human αvβ3; read-out: αvβ3IC50) [µM] | IC50 (GP IIb/IIIa; read-out: αIIbβ3 IC50) [µM] | IC50 (human purified αVβ5; read-out: αvβ5 IC50) [µM] | IC50 (Human αvβ3; αvβ3IC50 (uM)) [µM] | IC50 (human purified αVβ5; αvβ5 IC50 (uM)) [µM] | IC50 (GP IIb/IIIa; αIIbβ3 IC50 (uM)) [µM] |
| --- | --- | --- | --- | --- | --- | --- |
| O=C(O)CC(C1CCN(C(=O)CCCc2ccc3c(n2)NCCC3)CC1)C1CNc2ccccc2C1 (single isomer, unassigned) [Cpd 5-4, 1,2,3,4-Tetrahydro-β-[1-[1-oxo-4-(5,6,7,8-tetrahydro-1,8-naphthyridin-2-yl)butyl]-4-piperidinyl]-3-quinolinepropanoic acid] |  | 9.82 |  | 0.0054 ± 0.0002 | 0.162 ± 0.0627 |  |
| O=C(O)CC(CC1CCN(C(=O)CCc2ccc3c(n2)NCCC3)CC1)C1CNc2ccccc2C1 (single isomer, unassigned) [Cpd 19-2, 1,2,3,4-tetrahydro-β-[[1-[1-oxo-3-(5,6,7,8-tetrahydro-1,8-naphthyridin-2-yl)propyl]-4-piperidinyl]methyl]-3-quinolinepropanoic acid] | 0.0013 ± 0.0001 | 12.9 | 0.0092 ± 0.0004 |  |  |  |
| O=C(O)CC(C1CCN(C(=O)CCCc2ccc3c(n2)NCCC3)CC1)C1CNc2ccccc2C1 (single isomer, unassigned) [Cpd 5-3, 1,2,3,4-Tetrahydro-β-[1-[1-oxo-4-(5,6,7,8-tetrahydro-1,8-naphthyridin-2-yl)butyl]-4-piperidinyl]-3-quinolinepropanoic acid] |  |  | > 5 | 0.161 |  |  |
| CN1CC(C(CC(=O)O)CC2CCN(C(=O)CCc3ccc4c(n3)NCCC4)CC2)Cc2ccccc21 (racemic) [Cpd 67, N-Methyl-1,2,3,4-tetrahydro-β-[[1-[1-oxo-3-(5,6,7,8-tetrahydro-1,8-naphthyridin-2-yl)propyl]-4-piperidinyl]methyl]-3-quinolinepropanoic acid] |  | 7.82 |  | 0.048 ± 0.003 | 0.176 ± 0.035 |  |
| O=C(O)CC(c1cnc2ccccc2c1)C1CCN(C(=O)CCCc2ccc3c(n2)NCCC3)CC1 (stereo not drawn) [Cpd 4, β-[1-[1-Oxo-4-(5,6,7,8-tetrahydro-1,8-naphthyridin-2-yl)butyl]-4-piperidinyl]-3-quinolinepropanoic acid] |  |  |  | 0.0005 ± 0.0001 | 0.0355 ± 0.0089 | 0.87 ± 0.19 |
| O=C(O)CC(CC1CCN(C(=O)CCc2ccc3c(n2)NCCC3)CC1)c1cnc2ccccc2c1 (stereo not drawn) [Cpd 32, β-[[1-[1-oxo-3-(5,6,7,8-tetrahydro-1,8-naphthyridin-2-yl)propyl]-4-piperidinyl]methyl]-3-quinolinepropanoic acid] |  | 1.05 ± 0.56 |  | 0.0008 ± 0.0002 | 0.0022 ± 0.0007 |  |
| COc1ccc(C(CC(=O)O)CC2CCN(C(=O)CCc3ccc4c(n3)NCCC4)CC2)cn1 (stereo not drawn) [Cpd 28, 6-methoxy-β-[[1-[1-oxo-3-(5,6,7,8-tetrahydro-1,8-naphthyridin-2-yl)propyl]-4-piperidinyl]methyl]-3-pyridinepropanoic acid] |  |  |  | 0.0007 ± 0.0002 | 0.0027 ± 0.0008 | 6.1 ± 2.44 |
| O=C(O)CC(CC1CCN(C(=O)CCc2ccc3c(n2)NCCC3)CC1)C1CNc2ccccc2C1 (single isomer, unassigned) [Cpd 19-3, 1,2,3,4-tetrahydro-β-[[1-[1-oxo-3-(5,6,7,8-tetrahydro-1,8-naphthyridin-2-yl)propyl]-4-piperidinyl]methyl]-3-quinolinepropanoic acid] | 0.0447 ± 0.0204 |  | 1.17 ± 0.02 |  |  |  |
| O=C(O)CC(CCC1CCN(C(=O)CCCNc2ccccn2)CC1)c1cccnc1 (stereo not drawn) [Cpd 9, β-[2-[1-[1-Oxo-4-(2-pyridinylamino)butyl]-4-piperidinyl]ethyl]-3-pyridinepropanoic acid] | > 1 | 8.51 ± 2.36 |  |  |  |  |

More lines, main results first:

| IC50 (Human αvβ3; read-out: αvβ3IC50) [µM] | IC50 (GP IIb/IIIa; read-out: αIIbβ3 IC50) [µM] | IC50 (human purified αVβ5; read-out: αvβ5 IC50) [µM] | SMILES | IC50 (Human αvβ3; αvβ3IC50 (uM)) [µM] | IC50 (human purified αVβ5; αvβ5 IC50 (uM)) [µM] | IC50 (GP IIb/IIIa; αIIbβ3 IC50 (uM)) [µM] |
| --- | --- | --- | --- | --- | --- | --- |
| > 0.5 | > 50 | > 1 | COC(=O)CCCC1CCN(C(=O)CCc2ccc3c(n2)NCCC3)CC1 [Cpd 73, 4-[1-(3-5,6,7,8-Tetrahydro-[1,8]naphthyridin-2-yl-propionyl)-piperidin-4-yl]-butyric acid methyl ester] |  |  |  |
| 0.0026 ± 0.0014 | 7.81 ± 4.67 | 0.0096 ± 0.0038 | COc1cccc(C(CC(=O)O)CC2CCN(C(=O)CCc3ccc4c(n3)NCCC4)CC2)c1 (racemic) [Cpd 59] |  |  |  |
| 0.0011 ± 0.0002 | 2.52 ± 0.3 | 0.0023 ± 0.0009 | O=C(O)CC(CC1CCN(C(=O)CCc2ccc3c(n2)NCCC3)CC1)c1ccc2c(c1)OCO2 (stereo not drawn) [Cpd 11, β-(1,3-Benzodioxol-5-yl)-1-[1-oxo-3-(5,6,7,8-tetrahydro-1,8-naphthyridin-2-yl)propyl]-4-piperidinebutanoic acid] |  |  |  |
| 0.0019 ± 0.0006 | 39.1 ± 0.785 | 0.0245 ± 0.0065 | O=C(O)CC(CC1CCN(C(=O)CCc2ccc3c(n2)NCCC3)CC1)c1ccc2ccccc2c1 (stereo not drawn) [Cpd 56, β-(2-naphthalenyl)-1-[1-oxo-3-(5,6,7,8-tetrahydro-1,8-naphthyridin-2-yl)propyl]-4-piperidinebutanoic acid] |  |  |  |
| 0.028 ± 0.0031 | 1.8 ± 0.63 | 0.78 | COc1ccc(C(CCC2CCN(C(=O)CCc3ccc4c(n3)NCCC4)CC2)CC(=O)O)cn1 (stereo not drawn) [Cpd 21, 6-methoxy-β-[2-[1-[1-oxo-3-(5,6,7,8-tetrahydro-1,8-naphthyridin-2-yl)propyl]-4-piperidinyl]ethyl]-3-pyridinepropanoic acid] |  |  |  |
| 0.0018 ± 0.001 | 19.3 ± 2.6 | 0.873 ± 0.158 | O=C(O)CC(CC1CCN(C(=O)CCc2ccc3c(n2)NCCC3)CC1)c1ccc(-c2ccccc2)c(F)c1 (stereo not drawn) [Cpd 41, β-(2-fluoro[1,1′-biphenyl]-4-yl)-1-[1-oxo-3-(5,6,7,8-tetrahydro-1,8-naphthyridin-2-yl)propyl]-4-piperidinebutanoic acid] |  |  |  |
| 0.0066 ± 0.0018 | > 50 | 0.0287 ± 0.0133 | O=C(O)CC(CC1CCN(C(=O)CCc2ccc3c(n2)NCCC3)CC1)c1cccc(C(F)(F)F)c1 (stereo not drawn) [Cpd 39, 1-[1-oxo-3-(5,6,7,8-tetrahydro-1,8-naphthyridin-2-yl)propyl]-β-[3-(trifluoromethyl)phenyl]-4-piperidinebutanoic acid] |  |  |  |
| 0.0018 ± 0.0003 | 5.38 | 0.0397 ± 0.0121 | COc1cc(C(CC(=O)O)CC2CCN(C(=O)CCc3ccc4c(n3)NCCC4)CC2)ccc1O (racemic) [Cpd 76, 3-(4-Hydroxy-3-methoxy-phenyl)-4-[1-(3-5,6,7,8-tetrahydro-[1,8]naphthyridin-2-yl-propionyl)-piperidin-4-yl]-butyric acid] |  |  |  |
| 0.0035 ± 0.0006 | 13.6 ± 1.33 | 0.0659 ± 0.0171 | O=C(O)CC(CC1CCN(C(=O)CCc2ccc3c(n2)NCCC3)CC1)c1ccc2c(c1)CCO2 (stereo not drawn) [Cpd 46, β-(2,3-dihydro-5-benzofuranyl)-1-[1-oxo-3-(5,6,7,8-tetrahydro-1,8-naphthyridin-2-yl)propyl]-4-piperidinebutanoic acid] |  |  |  |
| 0.138 |  | 0.789 ± 0.065 | O=C(O)CC(CC1CCN(C(=O)c2cccc(NC3=NCCN3)c2)CC1)c1cccc(F)c1 (racemic) [Cpd 77] |  |  |  |
| 5.4 | 4.78 ± 1.01 |  | O=C(O)CCC1CCN(C(=O)CCc2cccc(NC3=NCCCN3)c2)CC1 [Cpd 2, 1-[1-Oxo-3-[3-[(1,4,5,6-tetrahydro-2-pyrimidinyl)amino]phenyl]propyl]-4-piperidinepropanoic acid] |  |  |  |
| 0.326 ± 0.0894 |  | 0.81 ± 0.104 | O=C(O)CC(CC1CCN(C(=O)CCc2ccc3c(n2)NCCC3)CC1)c1ccc2ccccc2c1 (single isomer, unassigned) [Cpd 56b, 3-Naphthalen-2-yl-4-[1-(3-5,6,7,8-tetrahydro-[1,8]naphthyridin-2-yl-propionyl)-piperidin-4-yl]-butyric acid] |  |  |  |
